Laboratory results: patent publication US8008298B2, “Pyrrolopyrazine kinase inhibitors” (Roche Palo Alto, priority 2008, dated 2011)

Legend:
Type in all cases: biochemical
[1] = biological target: JAK2: Recombinant human kinase domain (Homo sapiens, UniProt O60674); assay: JAK2 kinase inhibition, radioactive end-point assay; conditions: 1 nM JAK2, ATP 1.5 uM, peptide 50 uM, 20 minutes, room temperature; read-out: IC50 h-jak2-sf21-c
Description: (§1) Determination of IC50 of Janus Kinase (JAK) Inhibition: […]

[2] = biological target: JAK3: Recombinant human kinase domain (Homo sapiens, UniProt P52333); assay: JAK3 kinase inhibition, radioactive end-point assay; conditions: 0.5 nM or 0.2 nM JAK3, ATP 1.5 uM, peptide 50 uM, 20 minutes, room temperature; read-out: IC50 h-jak3-sf21-c
Chain of JAK3: Recombinant human kinase domain (P52333 822-1111 limits assumed): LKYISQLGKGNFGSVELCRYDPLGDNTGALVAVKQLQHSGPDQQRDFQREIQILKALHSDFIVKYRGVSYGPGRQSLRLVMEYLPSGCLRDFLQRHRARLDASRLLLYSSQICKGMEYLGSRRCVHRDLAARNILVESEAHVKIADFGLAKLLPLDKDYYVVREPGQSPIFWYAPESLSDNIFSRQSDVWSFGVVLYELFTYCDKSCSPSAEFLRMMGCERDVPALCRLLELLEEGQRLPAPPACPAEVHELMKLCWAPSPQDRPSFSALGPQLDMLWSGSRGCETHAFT
Description: as §1

[3] = biological target: T1, recombinant human SYK360-635 (Homo sapiens, UniProt P43405); assay: SYK kinase assay, 33P ATP incorporation into biotinylated peptide; conditions: 0.5 nM SYK aa 360-635, ATP 20 μM, peptide 5 μM, 15 min at 30° C.; read-out: IC50 h-syk (360-635)-baculovirus-c
T1 construct: truncated construct of Spleen Tyrosine Kinase aa 360-635; made in house
Method: SYK Assay Information Determination of IC50 of Spleen Tyrosine Kinase (SYK) Inhibition:
SYK kinase assay is a standard kinase assay adapted to a 96 well plate format. This assay is performed in 96-well format for IC50 determination with 8 samples which represented 10 half log dilutions and a 40 μL reaction volume. The assay measures the incorporation of radiolabeled ^33P γATP into an N-terminally biotinylated peptide substrate, derived from naturally occurring phosphoacceptor consensus sequence (Biotin-11aa DY*E). Phosphorylated products were detected upon termination of reactions with EDTA and the addition of Streptavidin coated beads. […]
The unbound radionucleotides were washed under vacuum with 3×250 μL 2M NaCl; 2×250 μL 2M NaCl+1% phosphoric acid; 1×250 μL H2O. After the last wash membrane/plates were transferred to an adaptor plate, heat dried for 15 min at 60° C., and 50 μL scintillation cocktail was added to each well and 4 h later the amount of radioactivity was counted in a top counter.
The percent inhibition was calculated based on the uninhibited enzyme rate: % Inhibition=100/(1+(IC50/Inhibitor cone)^n) • The IC50 was calculated using a non-linear curve fit with XLfit software (ID Business Solution Ltd., Guilford, Surrey, UK).

[4] = biological target: JAK1: Recombinant human kinase domain (Homo sapiens, UniProt P23458); assay: JAK1 kinase inhibition, radioactive end-point assay; conditions: 5 nM JAK1, ATP 10 uM, peptide 50 uM, 40 minutes, room temperature; read-out: IC50 h-jak1-sf21-c
Chain of JAK1: Recombinant human kinase domain (P23458 875-1153 limits assumed): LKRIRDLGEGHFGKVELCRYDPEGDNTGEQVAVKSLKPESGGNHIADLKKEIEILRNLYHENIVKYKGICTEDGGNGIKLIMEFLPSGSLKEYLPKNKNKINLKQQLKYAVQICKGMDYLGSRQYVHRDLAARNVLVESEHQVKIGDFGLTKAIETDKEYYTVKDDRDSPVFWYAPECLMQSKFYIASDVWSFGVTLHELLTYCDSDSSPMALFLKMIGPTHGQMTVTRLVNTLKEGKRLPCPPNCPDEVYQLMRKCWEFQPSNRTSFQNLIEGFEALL
Description: as §1

Chain of JAK2: Recombinant human kinase domain (O60674 849-1124 limits assumed): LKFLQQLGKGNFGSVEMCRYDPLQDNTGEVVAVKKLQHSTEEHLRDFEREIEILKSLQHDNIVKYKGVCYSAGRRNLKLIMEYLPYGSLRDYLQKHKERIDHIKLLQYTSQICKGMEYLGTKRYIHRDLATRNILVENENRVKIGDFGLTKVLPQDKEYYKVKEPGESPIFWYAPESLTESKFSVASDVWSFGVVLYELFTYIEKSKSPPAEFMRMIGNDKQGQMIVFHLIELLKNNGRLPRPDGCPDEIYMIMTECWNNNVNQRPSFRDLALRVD

Row | IC50 [1] | IC50 [2] | IC50 [3] | IC50 [4] | SMILES
1 | 0.455 µM | 0.0561 µM | 0.317 µM |  | COc1cc(-c2cnc3[nH]cc(C(=O)C(C)(C)C)c3n2)cc(OC)c1OC [Example I-12, 2,2-Dimethyl-1-[2-(3,4,5-trimethoxy-phenyl)-5H-pyrrolo[2,3-b]pyrazin-7-yl]-propan-1-one]
2 | 3.44 µM | 0.0241 µM | 1.31 µM | 2.1 µM | CC(C)(C)C(=O)c1c[nH]c2ncc(-c3cccc(N4CCCC4)c3)nc12 [Example I-64, 2,2-Dimethyl-1-[2-(3-pyrrolidin-1-yl-phenyl)-5H-pyrrolo[2,3-b]pyrazin-7-yl]-propan-1-one]
3 | 0.0108 µM | 0.0046 µM | 0.036 µM | 0.09 µM | COc1cc(-c2cnc3[nH]cc(C(=O)NCC(C)OC)c3n2)cc(OC)c1OC (centres unmarked) [Example I-82, 2-(3,4,5-Trimethoxy-phenyl)-5H-pyrrolo[2,3-b]pyrazine-7-carboxylic acid (2-methoxy-propyl)-amide]
4 | 0.107 µM | 0.0068 µM | 0.162 µM |  | COc1cc(-c2cnc3[nH]cc(C(=O)C4(C)CCCCC4)c3n2)cc(OC)c1OC [Example I-117, (1-Methyl-cyclohexyl)-[2-(3,4,5-trimethoxy-phenyl)-5H-pyrrolo[2,3-b]pyrazin-7-yl]-methanone]
